Test results: paper PMC11100015, “Bioluminescence Imaging of Potassium Ion Using a Sensory Luciferin and an Engineered Luciferase” (Journal of the American Chemical Society, 2024)

Biological target: T1, BREP (Oplophorus gracilirostris, UniProt Q9GV45, A31E/Q38R/Q45L/D46S/L54V/A60N/K70R/V71I/A81I/F95D/L99Q/M102K/D112N/I117V/P142E/Q151K/Y165I/C191H/N193R)
T1 construct: fusion of mScarlet-I and teLuc (NanoLuc variant) via three-residue linker; recombinant, pBAD/His B, purified; with mScarlet-I red fluorescent protein (engineered RFP, RET acceptor)
Assay: bioluminescence emission spectra
Type: biochemical
Conditions: MOPS pH 7.4; 25 uM potassiorin, 100 nM enzyme

T1 sequence (Q9GV45 28-196 with the stated changes): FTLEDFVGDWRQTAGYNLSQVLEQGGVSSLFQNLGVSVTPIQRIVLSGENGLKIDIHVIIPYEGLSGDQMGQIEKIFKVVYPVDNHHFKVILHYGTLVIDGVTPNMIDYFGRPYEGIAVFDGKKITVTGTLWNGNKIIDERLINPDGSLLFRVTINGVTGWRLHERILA

Question: For `O=c1c(Cc2ccc(OCCn3cc(-c4ccc(N5CCOCCOCCOCCOCCOCC5)cc4)nn3)cc2)nc2c(-c3ccccc3)[nH]c(-c3ccccc3)cn1-2` [compound 13, potassiorin], which bioluminescence emission spectra is on record?
Answer: We measured the emission spectra of BREP and potassiorin in the absence and presence
